From patent publication US8372979B2, “Process for the production of high-purity 2,4′-dimethyl-3-piperidino-propiophenone (tolperisone), pharmaceutical compositions that contain the latter, as well as active ingredient formulations that contain tolperisone” (SANOCHEMIA Pharmazeutika AG, priority 2007, dated 2013)
“Also recorded” adds a separate entry of the source.

Key:
[1] = preclinical in vitro tests (genotoxicity); conditions: classification also based on chemical structure
[2] = storage stability of tolperisone end product (4-MMPPO formation, HPLC-MS/MS); assay type: physicochemical
Description: Prior art according to AT PS 413 539: The tolperisone crude product is dissolved under reflux for 30 minutes in an 85:15 mixture that consists of 2-butanone (MEK) and isopropanol. The temperature is lowered to 80° C., and the solution is hot-filtered. The solution is allowed to cool to 5° C., and it is stirred for 7 hours. The crystalline precipitate that is obtained is filtered off, washed with 2-butanone, and then dried in a vacuum at 45-85° C.
A proportion of 500 ppm of 4-MMPPO is detected by analysis using HPLC-MS/MS.
The tolperisone crude product is dissolved under reflux for 12 hours in an 85:15 mixture that consists of 2-butanone (MEK) and isopropanol and with the addition of 1% HCl and 5% citric acid. The temperature is lowered to 80° C., and the solution is hot-filtered. The solution is allowed to cool to 5° C., and it is stirred for 7 hours at 5° C. The crystalline precipitate is filtered off, washed with MEK, and then dried in a vacuum at 45° to 85° C.
By analysis using HPLC-MS/MS, a proportion of 4-MMPPO in a range of 0 ppm (not detectable) to 10 ppm is determined.

Compound | genotoxic or carcinogenic actions [1] | stabilizing effect of citric acid present in end product ([2]; Variant IIIa: recrystallization in MEK/IPA + 1% HCl + 5% citric acid) | 4-MMPPO values with extended storage ([2]; end product of prior-art process AT 413 539 (recrystallization MEK/IPA, no acid))
C=C(C)C(=O)c1ccc(C)cc1 [4-MMPPO, 2-methyl-1-(4-methylphenyl)-propenone] | genotoxic or carcinogenic actions have been detected; also recorded: potentially genotoxic | – | –
Cc1ccc(C(=O)C(C)CN2CCCCC2)cc1 (stereo not drawn) [tolperisone, 2,4′-dimethyl-3-piperidino-propiophenone] | – | a stabilizing effect could be detected | additional increasing 4-MMPPO values
